Test results taken from US20150284331A1 (priority 2012, published 2015).

Assays:
acetylcholinesterase = target: T1, acetylcholinesterase (Rattus norvegicus, UniProt P37136); assay: biochemical; assay type: biochemical; details: rat cortex enzyme; for acetylcholinesterase inhibitory activity inhibition ratio (%): final concentration 4×10−5 mol/L; for IC50: read-out: acetylcholinesterase inhibitory activity IC50 (nmol)
T1 construct: Acetylcholinesterase: rat cortex; from tissue; host or cells: rat cortex
T1 sequence (P37136 32-614): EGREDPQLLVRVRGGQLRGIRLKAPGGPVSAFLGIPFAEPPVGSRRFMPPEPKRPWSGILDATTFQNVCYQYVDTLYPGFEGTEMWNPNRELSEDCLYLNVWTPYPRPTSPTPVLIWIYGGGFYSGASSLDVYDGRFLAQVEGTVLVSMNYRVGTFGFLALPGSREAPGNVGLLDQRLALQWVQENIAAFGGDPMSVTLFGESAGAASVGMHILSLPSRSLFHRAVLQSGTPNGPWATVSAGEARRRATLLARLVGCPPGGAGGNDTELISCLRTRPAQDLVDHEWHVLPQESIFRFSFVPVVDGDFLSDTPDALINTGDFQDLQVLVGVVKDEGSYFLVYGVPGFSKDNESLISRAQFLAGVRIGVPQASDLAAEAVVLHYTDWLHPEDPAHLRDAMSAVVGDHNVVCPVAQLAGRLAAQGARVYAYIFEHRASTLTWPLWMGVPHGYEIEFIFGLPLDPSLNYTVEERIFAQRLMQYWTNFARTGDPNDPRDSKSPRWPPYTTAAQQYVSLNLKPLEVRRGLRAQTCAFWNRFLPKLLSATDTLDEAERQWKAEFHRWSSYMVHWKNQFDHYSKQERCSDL
Experimental: (§1) Sample processing: All samples were formulated as 10-2 mol/L solution by using 100% DMSO. 10-2 mol/L solution was used in microdetermination. 1 μL was taken to use in single tube experiment.
(§2) Solvent control: 0.4% DMSO was used in microdetermination. The inhibition ratio of the sample was obtained wherein the effect of solvent was deducted.
Acetylcholinesterase: rat cortex

butyrylcholinesterase = target: T2, butyrylcholinesterase (Rattus norvegicus, UniProt Q9JKC1); assay: inhibition of butyrylcholinesterase (rat serum); assay type: biochemical; details: rat serum enzyme; final concentration 4×10−5 mol/L
T2 construct: Butyrylcholinesterase: rat serum; from tissue; host or cells: rat serum
T2 sequence (Q9JKC1 24-597): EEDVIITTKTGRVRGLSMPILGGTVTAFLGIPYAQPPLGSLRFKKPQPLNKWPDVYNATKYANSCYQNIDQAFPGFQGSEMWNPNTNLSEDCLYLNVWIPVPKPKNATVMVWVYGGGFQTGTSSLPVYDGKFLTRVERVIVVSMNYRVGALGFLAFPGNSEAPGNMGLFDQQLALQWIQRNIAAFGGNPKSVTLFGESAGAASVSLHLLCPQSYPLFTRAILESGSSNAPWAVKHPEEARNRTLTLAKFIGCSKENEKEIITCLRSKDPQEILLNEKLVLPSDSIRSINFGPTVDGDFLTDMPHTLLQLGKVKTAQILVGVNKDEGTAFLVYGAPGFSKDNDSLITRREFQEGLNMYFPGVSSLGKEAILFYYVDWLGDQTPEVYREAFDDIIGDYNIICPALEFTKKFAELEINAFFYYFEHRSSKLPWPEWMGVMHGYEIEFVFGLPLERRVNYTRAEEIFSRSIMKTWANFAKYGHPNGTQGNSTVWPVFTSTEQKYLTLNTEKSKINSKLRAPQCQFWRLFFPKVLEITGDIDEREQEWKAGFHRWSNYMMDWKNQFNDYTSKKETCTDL
Experimental: as §1, §2
Butyrylcholinesterase: rat serum

KM mice = assay: acute toxicities of compounds on mice; assay type: in vivo; details: 100 mg/kg oral
Experimental: Sample processing: When getting samples, they were undissolved. […] The samples were suspensions. Experimental animals: KM mice, 22-29 g, half male and half female.
Experimental method: Mice were randomly divided into groups. 100 mg/kg of test compounds DC19 and DC20 were administered orally, respectively.

Structure (SMILES) | acetylcholinesterase inhibitory activity inhibition ratio (%) (acetylcholinesterase) | IC50 (acetylcholinesterase) | butyrylcholinesterase inhibitory activity inhibition ratio (%) (butyrylcholinesterase) | response symptoms (KM mice; female KM mouse) | time of death after administration (KM mice; male KM mouse)
COc1cc2c(cc1OC)C(=O)C(CC1(F)CCN(Cc3ccccc3)CC1)C2 (stereo not drawn) [DC19, 2-((l-benzyl-4-fluoropiperidin-4-yl)methyl)-5,6-dimethoxy-2,3-dihydro-1H-inden-1-one] | 82.44% | 0.96 nM | 71.58% | 30 min squint | 3 h after administration, death
COc1cc2c(cc1OC)C(=O)C(CC1(F)CC3CCC(C1)N3Cc1cccc(C(F)(F)F)c1)C2 (stereo not drawn) [DC70, 2-((3-fluoro-8-(3-(trifluoromethyl)benzyl)-8-azabicyclo[3.2.1]octan-3-yl)methyl)-5,6-dimethoxy-2,3-dihydro-1H-inden-1-one] | 76.51% | – | 0.09% | – | –
COc1cc2c(cc1OC)C(=O)C(CC1(F)CC3CCC(C1)N3Cc1cc(F)cc(F)c1F)C2 (stereo not drawn) [DC75, 2-((3-fluoro-8-(2,3,5-trifluorobenzyl)-8-azabicyclo[3.2.1]octan-3-yl)methyl)-5,6-dimethoxy-2,3-dihydro-1H-inden-1-one] | 72.53% | – | 13.53% | – | –
CCOc1cc2c(cc1OCC)C(=O)C(CC1(F)CCN(Cc3ccccc3F)CC1)C2 (stereo not drawn) [DC77, 5,6-diethoxy-2-((4-fluoro-1-(2-fluorobenzyl)piperidin-4-yl)methyl)-2,3-dihydro-1H-inden-1-one] | 97.09% | 0.9 nM | 72.0% | – | –
CCCOc1cc2c(cc1OCCC)C(=O)C(CC1(F)CCN(Cc3ccccc3F)CC1)C2 (stereo not drawn) [DC78, 2-((4-fluoro-1-(2-fluorobenzyl)piperidin-4-yl)methyl)-5,6-dipropoxy-2,3-dihydro-1H-inden-1-one] | 95.04% | 0.96 nM | 71.0% | – | –
CCOCOc1cc2c(cc1OCOCC)C(=O)C(CC1(F)CCN(Cc3ccccc3F)CC1)C2 (stereo not drawn) [DC79, 5,6-bis(ethoxymethoxy)-2-((4-fluoro-1-(2-fluorobenzyl)piperidin-4-yl)methyl)-2,3-dihydro-1H-inden-1-one] | 93.05% | 1.86 nM | 75.0% | – | –
O=C1c2cc(OCC(F)(F)F)c(OCC(F)(F)F)cc2CC1CC1(F)CCN(Cc2ccccc2F)CC1 (stereo not drawn) [DC103, 2-((4-fluoro-1-(2-fluorobenzyl)piperidin-4-yl)methyl)-5,6-bis(2,2,2-trifluoroethoxy)-2,3-dihydro-1H-inden-1-one] | 92.04% | 0.86 nM | 70.0% | – | –
O=C1c2cc(OC(F)F)c(OC(F)F)cc2CC1CC1(F)CCN(Cc2ccccc2F)CC1 (stereo not drawn) [DC104, 5,6-bis(difluoromethoxy)-2-((4-fluoro-1-(2-fluorobenzyl)piperidin-4-yl)methyl)-2,3-dihydro-1H-inden-1-one] | 98.02% | 0.76 nM | 71.8% | – | –
O=C1c2cc(OCC(F)F)c(OCC(F)F)cc2CC1CC1(F)CCN(Cc2ccccc2F)CC1 (stereo not drawn) [DC105, 5,6-bis(2,2-difluoroethoxy)-2-((4-fluoro-1-(2-fluorobenzyl)piperidin-4-yl)methyl)-2,3-dihydro-1H-inden-1-one] | 98.14% | 0.99 nM | 61.5% | – | –
O=C1c2cc(Cl)c(Cl)cc2CC1CC1(F)CCN(Cc2ccccc2F)CC1 (stereo not drawn) [DC106, 5,6-dichloro-2-((4-fluoro-1-(2-fluorobenzyl)piperidin-4-yl)methyl)-2,3-dihydro-1H-inden-1-one] | 70.05% | 500 nM | 88.0% | – | –
COC(=O)C1CC(F)(CC2Cc3cc(OC)c(OC)cc3C2=O)CCN1Cc1ccccc1F (stereo not drawn) [DC107, methyl 4-((5,6-dimethoxy-1-oxo-2,3-dihydro-1H-inden-2-yl)methyl)-4-fluoro-1-(2-fluorobenzyl)piperidine-2-carboxylate] | 76.03% | 23 nM | 75.6% | – | –
COc1cc2c(cc1OC)C(=O)C(CC1(F)CCN(Cc3ccccc3F)C(C(=O)O)C1)C2 (stereo not drawn) [DC108, 4-((5,6-dimethoxy-1-oxo-2,3-dihydro-1H-inden-2-yl)methyl)-4-fluoro-1-(2-fluorobenzyl)piperidine-2-carboxylic acid] | 82.49% | 9.96 nM | 71.58% | – | –
COc1cc2c(cc1OC)C(=O)C(CC1(F)CCN(Cc3ccccc3F)C(C)C1)C2 (stereo not drawn) [DC109, 2-((4-fluoro-1-(2-fluorobenzyl)-2-methylpiperidin-4-yl)methyl)-5,6-dimethoxy-2,3-dihydro-1H-inden-1-one] | 88.44% | 10.9 nM | 76.62% | – | –
COc1cc2c(cc1OC)C(=O)C(CC1(F)CCN(CCc3ccccc3)CC1)C2 (stereo not drawn) [DC110, 2-((4-fluoro-1-phenethylpiperidin-4-yl)methyl)-5,6-dimethoxy-2,3-dihydro-1H-inden-1-one] | 88.55% | 12.3 nM | 66.30% | – | –
COc1cc2c(cc1OC)C(=O)C(CC1(F)CCN(CCc3ccccc3F)CC1)C2 (stereo not drawn) [DC111, 2-((4-fluoro-1-(2-fluorophenethyl)piperidin-4-yl)methyl)-5,6-dimethoxy-2,3-dihydro-1H-inden-1-one] | 92.44% | 1.96 nM | 71.58% | – | –
